One assay deals with T1, human glucagon receptor (Homo sapiens, UniProt P47871).
T1 construct: made in house; host or cells: FreeStyle CHO cells, transient transfection with pMSRαneo/hGCGR; membrane fraction (35,000 rpm pellet)
T1 sequence (P47871 26-477): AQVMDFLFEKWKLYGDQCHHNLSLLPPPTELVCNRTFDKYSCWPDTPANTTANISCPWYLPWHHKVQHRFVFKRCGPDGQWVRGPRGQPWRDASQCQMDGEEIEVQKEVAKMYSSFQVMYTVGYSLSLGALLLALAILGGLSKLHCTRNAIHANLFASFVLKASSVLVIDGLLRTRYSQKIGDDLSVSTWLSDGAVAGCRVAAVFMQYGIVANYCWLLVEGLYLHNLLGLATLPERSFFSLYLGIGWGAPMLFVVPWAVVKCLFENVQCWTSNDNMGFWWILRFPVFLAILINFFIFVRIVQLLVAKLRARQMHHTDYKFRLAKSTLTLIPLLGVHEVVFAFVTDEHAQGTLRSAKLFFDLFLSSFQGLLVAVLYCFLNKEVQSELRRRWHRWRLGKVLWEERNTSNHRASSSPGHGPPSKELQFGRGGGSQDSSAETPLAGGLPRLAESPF
Kind of assay: Glucagon binding inhibitory activity ([125I]-glucagon binding to glucagon receptor membrane protein). Conditions: human glucagon receptor membrane protein, [125I]-glucagon, 90 min room temperature. In outline:
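Receptor source was a membrane fraction of transiently transfected CHO cells bearing human receptor; 90 min room-temperature binding, filtration harvest, scintillation counting.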
The IC50 is the point on the concentration scale where inhibition reaches its midpoint. The low end stands for higher potency, the high end for lower potency. For `COCc1c(C(Nc2ccc(C(=O)N(C)CCC(=O)O)cc2)C2CCCCC2)oc2ccc(F)cc12` (single isomer, unassigned) [Example A49, 3-[{[4-({cyclohexyl[5-fluoro-3-(methoxymethyl)-1-benzofuran-2-yl]methyl}amino)phenyl]carbonyl}(methyl)amino]propanoic acid], the IC50 turned out to be 640 nM.

Still in this assay, the particulars now being: test compound 10 μM; 0.4% DMSO = 0%, non-labeled glucagon 1 μM = 100%; read-out: inhibitory rate (%) at 10 μM.
For the molecule `Cc1c(C(Nc2ccc(C(=O)N(C)CCC(=O)O)cc2)C2CCCCC2)oc2ccc(OCc3ccncc3)cc12` (stereo not shown) [Example A157, 3-[{[4-({cyclohexyl[3-methyl-5-(pyridin-4-ylmethoxy)-1-benzofuran-2-yl]methyl}amino)phenyl]carbonyl}(methyl)amino]propanoic acid], the inhibition at 10 µM is 80%.

For the molecule `Cc1c(C(Nc2ccc(C(=O)NCCC(=O)O)nc2)C2CCCCC2)sc2ccccc12` (stereo not shown) [Example A62, 3-{[(5-{[cyclohexyl(3-methyl-1-benzothiophen-2-yl)methyl]amino}pyridin-2-yl)carbonyl]amino}propanoic acid], the inhibition at 10 µM was 81%.

On to `COc1ccc2oc(C(CCCCSC)Nc3ccc(C(=O)NCCC(=O)O)cc3)c(C)c2c1` (stereo not shown) [Example A120, 3-{[(4-{[1-(5-methoxy-3-methyl-1-benzofuran-2-yl)-5-(methylsulfanyl)pentyl]amino}phenyl)carbonyl]amino}propanoic acid], for which the inhibition at 10 µM amounted to 73%.

As for `Cc1c(C(Nc2ccc(C(=O)NCCC(=O)O)cc2)C2CCCCC2)oc2c(F)cc(F)cc12` (stereo not shown) [Example A163, 3-{[(4-{[cyclohexyl(5,7-difluoro-3-methyl-1-benzofuran-2-yl)methyl]amino}phenyl)carbonyl]amino}propanoic acid], the inhibition at 10 µM stood at 87%.

`CN(CCC(=O)O)C(=O)c1ccc(NC(c2cn(-c3ccc(C(F)(F)F)cn3)nc2CCc2ccccc2)C2CCCCC2)cc1` (stereo not shown) [Example 12, 3-[({4-[(cyclohexyl{3-(2-phenylethyl)-1-[5-(trifluoromethyl)pyridin-2-yl]-1H-pyrazol-4-yl}methyl)amino]phenyl}carbonyl)(methyl)amino]propanoic acid]: the inhibition at 10 µM is 74%.

Regarding `CCc1nn(-c2cc(F)cc(F)c2)cc1C(Nc1ccc(C(=O)NCCC(=O)O)cc1)C1CCCCC1` (stereo not shown) [Example 88, 3-({[4-({cyclohexyl[1-(3,5-difluorophenyl)-3-ethyl-1H-pyrazol-4-yl]methyl}amino)phenyl]carbonyl}amino)propanoic acid], the inhibition at 10 µM was 71%.

As to `CSCCOc1ccc2oc(C(Nc3ccc(C(=O)NCCC(=O)O)cc3)C3CCCCC3)c(C)c2c1` (stereo not shown) [Example A148, 3-[({4-[(cyclohexyl{3-methyl-5-[2-(methylthio)ethoxy]-1-benzofuran-2-yl}methyl)amino]phenyl}carbonyl)amino]propanoic acid], the inhibition at 10 µM was determined as 94%.

`Cc1c(C(Nc2ccc(C(=O)NCCC(=O)O)cn2)C2CCCCC2)oc2ccc(F)cc12` (stereo not shown) [Example A51, 3-{[(6-{[cyclohexyl(5-fluoro-3-methyl-1-benzofuran-2-yl)methyl]amino}pyridin-3-yl)carbonyl]amino}propanoic acid]: the inhibition at 10 µM turned out to be 71%.

On to `Cc1c(C(CC(C)C)Nc2ccc(C(=O)N(C)CCC(=O)O)cc2)sc2ccccc12` (stereo not shown) [Example A32, 3-{methyl[(4-{[3-methyl-1-(3-methyl-1-benzothiophen-2-yl)butyl]amino}phenyl)carbonyl]amino}propanoic acid], for which the inhibition at 10 µM was 72%.

Consider `COc1ccc2oc(C(Nc3ccc(C(=O)NCCC(=O)O)cc3)C3CCCCC3)c(C#N)c2c1` (stereo not shown) [Example A108, 3-{[(4-{[(3-cyano-5-methoxy-1-benzofuran-2-yl)(cyclohexyl)methyl]amino}phenyl)carbonyl]amino}propanoic acid], for which the inhibition at 10 µM was 58%.

Consider `Cc1c(C(Nc2ccc(C(=O)N(C)CCC(=O)O)cc2)C2CCCCC2)oc2ccccc12` (stereo not shown) [Example A16, 3-{[(4-{[cyclohexyl(3-methyl-1-benzofuran-2-yl)methyl]amino}phenyl)carbonyl](methyl)amino}propanoic acid], for which the inhibition at 10 µM was 74%.

With `CN(CCC(=O)O)C(=O)c1ccc(NC(c2csc3ccccc23)C2CCCCC2)cc1` (stereo not shown) [Example A2, 3-{[(4-{[1-benzothiophen-3-yl(cyclohexyl)methyl]amino}phenyl)carbonyl](methyl)amino}-propanoic acid], the inhibition at 10 µM is 64%.

Take `COCc1c(C(Nc2ccc(C(=O)N(C)CCC(=O)O)cc2)C2CCCCC2)oc2ccc(F)cc12` (single isomer, unassigned) [Example A49, 3-[{[4-({cyclohexyl[5-fluoro-3-(methoxymethyl)-1-benzofuran-2-yl]methyl}amino)phenyl]carbonyl}(methyl)amino]propanoic acid]: the inhibition at 10 µM was found to be 86%.

As to `Cc1c(C(Nc2ccc(C(=O)N(C)CCC(=O)O)nc2)C(C)C)oc2ccc(OCc3ccccc3)cc12` (stereo not shown) [Example A172, 3-[{[5-({1-[5-(benzyloxy)-3-methyl-1-benzofuran-2-yl]-2-methylpropyl}amino)pyridin-2-yl]carbonyl}(methyl)amino]propanoic acid], the inhibition at 10 µM was found to be 82%.

In the case of `Cc1c(C(Nc2ccc(C(=O)NCCC(=O)O)cc2)C(C)C)oc2ccc(F)cc12` (stereo not shown) [Example A193, 3-{[(4-{[1-(5-fluoro-3-methyl-1-benzofuran-2-yl)-2-methylpropyl]amino}phenyl)carbonyl]amino}propanoic acid], the inhibition at 10 µM was 80%.

`CCCc1nn(-c2ccc(C(F)(F)F)cn2)cc1C(Nc1ccc(C(=O)N(C)CCC(=O)O)cc1)C1CCCCC1` (stereo not shown) [Example 6, 3-[({4-[(cyclohexyl{3-propyl-1-[5-(trifluoromethyl)pyridin-2-yl]-1H-pyrazol-4-yl}methyl)amino]phenyl}carbonyl)(methyl)amino]propanoic acid]: the inhibition at 10 µM was 75%.

Take `CCn1nc(-c2ccc(OC(F)(F)F)cc2)cc1C(CC(C)C)Nc1ccc(C(=O)N(C)CCC(=O)O)cc1` (stereo not shown) [Example 59, 3-[({4-[(1-{1-ethyl-3-[4-(trifluoromethoxy)phenyl]-1H-pyrazol-5-yl}-3-methylbutyl)amino]phenyl}carbonyl)(methyl)amino]propanoic acid]: the inhibition at 10 µM came to 61%.

In the case of `Cc1c(C(Nc2ccc(C(=O)NCCC(=O)O)cc2)C2CCCCC2)oc2ccc(OCCCS(C)(=O)=O)cc12` (stereo not shown) [Example A153, 3-[({4-[(cyclohexyl{3-methyl-5-[3-(methylsulfonyl)propoxy]-1-benzofuran-2-yl}methyl)amino]phenyl}carbonyl)amino]propanoic acid], the inhibition at 10 µM was found to be 74%.

For `COCc1c(C(Nc2ccc(C(=O)N(C)CCC(=O)O)cc2)C2CCCCC2)oc2ccc(F)cc12` (stereo not shown) [Example A48, 3-[{[4-({cyclohexyl[5-fluoro-3-(methoxymethyl)-1-benzofuran-2-yl]methyl}amino)phenyl]carbonyl}(methyl)amino]propanoic acid], the inhibition at 10 µM was determined as 66%.

In the case of `Cc1c(C(Nc2ccc(C(=O)N(C)CCC(=O)O)cc2)C2CCCCC2)oc2cc(F)ccc12` (stereo not shown) [Example A97], the inhibition at 10 µM came out at 76%.

Consider `Cc1c(C(Nc2ccc(C(=O)N(C)CCC(=O)O)cc2)C2CCCC2)sc2ccccc12` (stereo not shown) [Example A64, 3-{[(4-{[cyclopentyl(3-methyl-1-benzothiophen-2-yl)methyl]amino}phenyl)carbonyl](methyl)amino}propanoic acid], for which the inhibition at 10 µM came out at 84%.

For the molecule `Cc1c(C(Nc2ccc(C(=O)N(C)CCC(=O)O)cc2)C(C)C)oc2ccc(F)cc12` (stereo not shown) [Example A192], the inhibition at 10 µM is 72%.

As to `O=C(O)CCNC(=O)c1ccc(NC(c2cn(-c3ccc(C(F)(F)F)cn3)nc2C2CC2)C2CCCCC2)cc1` (stereo not shown) [Example 9, 3-[({4-[(cyclohexyl{3-cyclopropyl-1-[5-(trifluoromethyl)pyridin-2-yl]-1H-pyrazol-4-yl}methyl)amino]phenyl}carbonyl)amino]propanoic acid], the inhibition at 10 µM was 74%.

On to `O=C(O)CCNC(=O)c1ccc(NC(c2cn(-c3ccccc3)nc2CCc2ccccc2)C2CCCCC2)cc1` (stereo not shown) [Example 15, 3-({[4-({cyclohexyl[1-phenyl-3-(2-phenylethyl)-1H-pyrazol-4-yl]methyl}amino)phenyl]carbonyl}amino)propanoic acid], for which the inhibition at 10 µM amounted to 72%.

Turning to `Cc1cc(F)ccc1-n1cc(C(Nc2ccc(C(=O)NCCC(=O)O)cc2)C2CCCCC2)c(C)n1` (stereo not shown) [Example 21, 3-({[4-({[1-(4-fluoro-2-methylphenyl)-3-methyl-1H-pyrazol-4-yl](cyclohexyl)methyl}amino)phenyl]carbonyl}amino)propanoic acid], the inhibition at 10 µM stood at 77%.

For the molecule `COc1ccc2oc(C(Nc3ccc(C(=O)N(C)CCC(=O)O)cc3)c3ccccc3)c(C)c2c1` (stereo not shown) [Example A114, 3-{[(4-{[(5-methoxy-3-methyl-1-benzofuran-2-yl)(phenyl)methyl]amino}phenyl)carbonyl](methyl)amino}-propanoic acid], the inhibition at 10 µM was 70%.

Consider `CCc1nn(-c2ccc(C(F)(F)F)cn2)cc1C(Nc1ccc(C(=O)N(C)CCC(=O)O)cc1)C1CCCCC1` (stereo not shown) [Example 4, 3-[({4-[(cyclohexyl{3-ethyl-1-[5-(trifluoromethyl)pyridin-2-yl]-1H-pyrazol-4-yl}methyl)amino]phenyl}carbonyl)(methyl)amino]propanoic acid], for which the inhibition at 10 µM is 77%.

For the molecule `Cc1c(C(Nc2ccc(C(=O)N(C)CCC(=O)O)nc2)C2CCCCC2)sc2ccccc12` (stereo not shown) [Example A59, 3-{[(5-{[cyclohexyl(3-methyl-1-benzothiophen-2-yl)methyl]amino}pyridin-2-yl)carbonyl](methyl)amino}propanoic acid], the inhibition at 10 µM came to 77%.

Regarding `CN(CCC(=O)O)C(=O)c1ccc(NC(c2nn(-c3ccccc3)c3ccccc23)C2CCCCC2)cc1` (stereo not shown) [Example A15, 3-{[(4-{[cyclohexyl(1-phenyl-1H-indazol-3-yl)methyl]amino}phenyl)carbonyl](methyl)amino}propanoic acid], the inhibition at 10 µM is 72%.

`Cc1c(C(Nc2ccc(C(=O)N(C)CCC(=O)O)cc2)C2CCCCC2)oc2cccc(F)c12` (stereo not shown) [Example A162]: the inhibition at 10 µM was 79%.

Values taken from patent US8436043B2 (Takeda Pharmaceutical Company Limited, priority 2008, dated 2013).
